Series [1] in a line: AUC in cynomolgus monkey at 3 mg/kg, po and measured upto 24 hrs by LC-MS/MS analysis. Type of series: ADME, organism-based, Macaca fascicularis. On the set-up: dose 3 mg/kg, time < 24 hrs, route po. As to conditions: in vivo.
In series [2] the target is T1, Mitogen-activated protein kinase kinase kinase kinase 1 (Homo sapiens, UniProt Q92918). The experiment in a line: Inhibition of human HPK1 in human Jurkat cells assessed as reduction in SLP76 phosphorylation incubated for 1 hr by HTRF assay. Type of series: cell-based. (In general: TR-FRET usually uses a lanthanide donor and a delayed reading to cut background.)
Series [3] can be described thus: Half life in cynomolgus monkey at 1 mg/kg, iv and measured upto 24 hrs by LC-MS/MS analysis. As to conditions: in vivo. Type of series: ADME, organism-based, Macaca fascicularis.
Series [4] addresses T2, Cytochrome P450 2C8 (Homo sapiens, UniProt P10632).
T2 sequence (P10632 whole entry): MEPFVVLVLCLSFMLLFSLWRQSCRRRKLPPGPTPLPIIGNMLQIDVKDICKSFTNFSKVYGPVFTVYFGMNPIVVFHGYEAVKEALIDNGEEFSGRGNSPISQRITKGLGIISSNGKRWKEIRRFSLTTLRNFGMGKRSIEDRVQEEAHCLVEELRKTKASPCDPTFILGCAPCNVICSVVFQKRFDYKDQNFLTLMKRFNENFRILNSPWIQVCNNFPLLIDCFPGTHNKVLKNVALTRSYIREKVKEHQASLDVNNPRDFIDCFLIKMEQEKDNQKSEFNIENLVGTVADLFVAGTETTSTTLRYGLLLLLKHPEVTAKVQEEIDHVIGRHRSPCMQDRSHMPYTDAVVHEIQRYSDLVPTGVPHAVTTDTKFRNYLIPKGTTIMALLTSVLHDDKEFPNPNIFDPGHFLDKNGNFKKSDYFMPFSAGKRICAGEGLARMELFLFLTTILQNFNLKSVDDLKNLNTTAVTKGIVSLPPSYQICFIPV
The series can be described thus: Inhibition of CYP2C8 in human liver microsomes using amodiaquine as substrate by LC-MS analysis. Type of series: ADME, Microsome.

Series [5] deals with Cytochrome P450 2C9 (Homo sapiens, UniProt P11712). The experiment in a line: Inhibition of CYP2C9 in human liver microsomes using diclofenac as substrate by LC-MS analysis. Type of series: ADME, Microsome. (Liver microsomes are a subcellular fraction often used to study metabolism.)
The nature of series [6]: Oral bioavailability in cynomolgus monkey at 3 mg/kg and measured upto 24 hrs by LC-MS/MS analysis. Type of series: ADME, organism-based, Macaca fascicularis. As to conditions: in vivo.
A short description of series [7]: Clearance in cynomolgus monkey at 1 mg/kg, iv and measured upto 24 hrs by LC-MS/MS analysis. The conditions noted are these: in vivo. Type of series: ADME, organism-based, Macaca fascicularis.
The target in series [8] is Cytochrome P450 2D6 (Homo sapiens, UniProt P10635). The experiment in a line: Inhibition of CYP2D6 in human liver microsomes using bufuralol as substrate by LC-MS analysis. Type of series: ADME, Microsome.
The nature of series [9]: Intrinsic clearance in human liver microsomes at 1 uM and measured upto 30 mins in presence of NADPH by LC-MS analysis. Type of series: ADME, Microsome. The conditions noted are these: read-out: CLH (converted).
The target of series [10] is T3, Cytochrome P450 1A2 (Homo sapiens, UniProt P05177).
T3 sequence (P05177 whole entry): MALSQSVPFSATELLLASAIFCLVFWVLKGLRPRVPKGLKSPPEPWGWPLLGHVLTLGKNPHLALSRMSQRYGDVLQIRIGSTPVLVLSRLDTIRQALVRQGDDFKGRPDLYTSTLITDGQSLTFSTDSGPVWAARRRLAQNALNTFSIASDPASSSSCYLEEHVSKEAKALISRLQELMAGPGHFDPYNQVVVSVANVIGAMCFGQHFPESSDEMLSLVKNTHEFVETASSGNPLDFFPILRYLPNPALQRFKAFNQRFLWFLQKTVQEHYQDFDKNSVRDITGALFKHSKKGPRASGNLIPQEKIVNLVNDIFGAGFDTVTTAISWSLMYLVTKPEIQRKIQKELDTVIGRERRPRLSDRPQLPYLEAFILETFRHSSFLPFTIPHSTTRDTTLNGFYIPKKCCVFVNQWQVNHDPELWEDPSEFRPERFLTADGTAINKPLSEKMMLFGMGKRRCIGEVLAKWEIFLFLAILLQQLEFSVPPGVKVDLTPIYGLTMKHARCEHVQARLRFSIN
The series can be described thus: Inhibition of CYP1A2 in human liver microsomes using 7- ethoxyresorufin as substrate by LC-MS analysis. Type of series: ADME, Microsome.

Series [11] is described as follows: AUC in Sprague-Dawley rat at 3 mg/kg, po and measured upto 24 hrs by LC-MS/MS analysis. Type of series: ADME, organism-based. On the set-up: dose 3 mg/kg, time < 24 hrs, route po. The conditions noted are these: in vivo.
The target in series [12] is hERG (KCNH2) (Homo sapiens, UniProt Q12809). The series can be described thus: Inhibition of human ERG at 5 uM by patch-clamp assay. Type of series: toxicity. On the technique in general: Patch clamp records ionic current or voltage across a cell membrane.
Series [13] has as its target T1, Mitogen-activated protein kinase kinase kinase kinase 1. The series can be described thus: Inhibition of human HPK1 in human whole blood assessed as reduction in SLP76 phosphorylation incubated for 1 hr by HTRF assay. Type of series: tissue-based.
A short description of series [14]: Volume of distribution at steady state in cynomolgus monkey at 1 mg/kg, iv and measured upto 24 hrs by LC-MS/MS analysis. The conditions noted are these: in vivo. Type of series: ADME, organism-based, Macaca fascicularis.
Series [15] concerns the target T4, Cytochrome P450 2B6 (Homo sapiens, UniProt P20813).
T4 sequence (P20813 whole entry): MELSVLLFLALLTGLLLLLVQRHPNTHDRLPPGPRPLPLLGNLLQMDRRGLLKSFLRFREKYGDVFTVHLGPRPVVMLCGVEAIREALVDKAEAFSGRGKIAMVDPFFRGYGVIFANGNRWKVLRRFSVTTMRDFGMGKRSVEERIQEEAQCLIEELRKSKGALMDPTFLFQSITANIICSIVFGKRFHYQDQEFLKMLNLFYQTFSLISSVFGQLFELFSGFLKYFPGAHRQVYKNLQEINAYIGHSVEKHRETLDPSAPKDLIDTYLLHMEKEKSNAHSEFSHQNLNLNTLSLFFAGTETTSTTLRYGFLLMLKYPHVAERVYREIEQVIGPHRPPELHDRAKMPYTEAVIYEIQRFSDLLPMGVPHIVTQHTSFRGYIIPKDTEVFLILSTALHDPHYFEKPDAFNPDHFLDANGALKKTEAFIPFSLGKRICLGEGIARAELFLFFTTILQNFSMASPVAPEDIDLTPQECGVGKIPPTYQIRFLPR
The series can be described thus: Inhibition of CYP2B6 in human liver microsomes using bupropion as substrate by LC-MS analysis. Type of series: ADME, Microsome.

For series [16], the target named is Cytochrome P450 2C19 (Homo sapiens, UniProt P33261). The experiment in a line: Inhibition of CYP2C19 in human liver microsomes using S mephenytoin as substrate by LC-MS analysis. Type of series: ADME, Microsome.
Series [17] concerns the target Cytochrome P450 3A4 (Homo sapiens, UniProt P08684). The experiment in a line: Inhibition of CYP3A4 in human liver microsomes using testosterone as substrate by LC-MS analysis. Type of series: ADME, Microsome.
Series [18] can be described thus: Permeability across apical to basolateral side in human Caco2 cells at 50 uM and measured after 120 mins by LC-MS analysis. Type of series: ADME, cell-based. The conditions noted are these: Caco-2, read-out: permeability.
Series [19] deals with T1, Mitogen-activated protein kinase kinase kinase kinase 1. The experiment in a line: Binding affinity to recombinant human HPK1 (1 to 346 residues) expressed sf9 cells incubated for 1 hr by LanthaScreen assay.
Series [20] in a line: Clearance in Sprague-Dawley rat at 1.5 mg/kg, iv and measured upto 24 hrs by LC-MS/MS analysis. The conditions noted are these: in vivo. Type of series: ADME, organism-based.
The nature of series [21]: Fraction unbound in human plasma by LC-MS/MS analysis. Type of series: ADME, cell-free.

Structures are written as SMILES.

One compound from ChEMBL document CHEMBL5223162, “Discovery of Pyrazolopyridine Derivatives as HPK1 Inhibitors” (ACS Med Chem Lett, 2023) can be followed below.

T1 sequence (Q92918 whole entry): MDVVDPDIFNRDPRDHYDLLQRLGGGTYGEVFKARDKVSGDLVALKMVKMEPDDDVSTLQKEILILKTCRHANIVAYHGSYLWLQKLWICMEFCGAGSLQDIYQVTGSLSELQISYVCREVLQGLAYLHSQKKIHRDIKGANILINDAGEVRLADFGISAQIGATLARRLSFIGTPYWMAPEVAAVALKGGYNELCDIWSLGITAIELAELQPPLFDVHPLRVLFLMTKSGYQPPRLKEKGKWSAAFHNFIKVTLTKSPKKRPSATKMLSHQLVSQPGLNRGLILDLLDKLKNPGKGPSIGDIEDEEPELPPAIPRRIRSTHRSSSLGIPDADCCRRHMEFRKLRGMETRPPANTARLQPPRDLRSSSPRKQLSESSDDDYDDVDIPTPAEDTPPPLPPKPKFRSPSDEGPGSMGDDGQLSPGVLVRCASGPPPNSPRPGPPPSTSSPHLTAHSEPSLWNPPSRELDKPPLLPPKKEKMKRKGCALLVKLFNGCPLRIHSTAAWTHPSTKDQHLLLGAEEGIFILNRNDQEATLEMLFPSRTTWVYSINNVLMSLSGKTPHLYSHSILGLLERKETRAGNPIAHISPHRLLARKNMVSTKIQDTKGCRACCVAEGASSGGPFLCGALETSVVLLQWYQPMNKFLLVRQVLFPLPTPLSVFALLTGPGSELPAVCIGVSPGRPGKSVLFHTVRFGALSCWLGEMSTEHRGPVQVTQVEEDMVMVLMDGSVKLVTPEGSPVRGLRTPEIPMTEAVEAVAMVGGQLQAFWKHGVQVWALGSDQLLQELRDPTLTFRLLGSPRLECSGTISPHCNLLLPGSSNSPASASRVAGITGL
Sequence of Cytochrome P450 3A4 (P08684 whole entry): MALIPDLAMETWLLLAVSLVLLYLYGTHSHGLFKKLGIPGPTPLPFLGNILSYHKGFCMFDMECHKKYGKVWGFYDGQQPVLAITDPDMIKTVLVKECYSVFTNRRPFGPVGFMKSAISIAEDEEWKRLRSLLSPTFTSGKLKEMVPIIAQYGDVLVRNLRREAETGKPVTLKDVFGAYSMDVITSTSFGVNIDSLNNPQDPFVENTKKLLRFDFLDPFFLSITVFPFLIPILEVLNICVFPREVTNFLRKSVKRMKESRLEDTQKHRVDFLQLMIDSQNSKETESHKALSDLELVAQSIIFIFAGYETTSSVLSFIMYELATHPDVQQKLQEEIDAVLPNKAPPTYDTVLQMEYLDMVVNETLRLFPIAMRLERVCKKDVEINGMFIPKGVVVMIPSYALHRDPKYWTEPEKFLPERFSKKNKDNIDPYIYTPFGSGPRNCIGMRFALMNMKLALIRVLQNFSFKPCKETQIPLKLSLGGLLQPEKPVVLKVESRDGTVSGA
Sequence of hERG (KCNH2) (Q12809 whole entry): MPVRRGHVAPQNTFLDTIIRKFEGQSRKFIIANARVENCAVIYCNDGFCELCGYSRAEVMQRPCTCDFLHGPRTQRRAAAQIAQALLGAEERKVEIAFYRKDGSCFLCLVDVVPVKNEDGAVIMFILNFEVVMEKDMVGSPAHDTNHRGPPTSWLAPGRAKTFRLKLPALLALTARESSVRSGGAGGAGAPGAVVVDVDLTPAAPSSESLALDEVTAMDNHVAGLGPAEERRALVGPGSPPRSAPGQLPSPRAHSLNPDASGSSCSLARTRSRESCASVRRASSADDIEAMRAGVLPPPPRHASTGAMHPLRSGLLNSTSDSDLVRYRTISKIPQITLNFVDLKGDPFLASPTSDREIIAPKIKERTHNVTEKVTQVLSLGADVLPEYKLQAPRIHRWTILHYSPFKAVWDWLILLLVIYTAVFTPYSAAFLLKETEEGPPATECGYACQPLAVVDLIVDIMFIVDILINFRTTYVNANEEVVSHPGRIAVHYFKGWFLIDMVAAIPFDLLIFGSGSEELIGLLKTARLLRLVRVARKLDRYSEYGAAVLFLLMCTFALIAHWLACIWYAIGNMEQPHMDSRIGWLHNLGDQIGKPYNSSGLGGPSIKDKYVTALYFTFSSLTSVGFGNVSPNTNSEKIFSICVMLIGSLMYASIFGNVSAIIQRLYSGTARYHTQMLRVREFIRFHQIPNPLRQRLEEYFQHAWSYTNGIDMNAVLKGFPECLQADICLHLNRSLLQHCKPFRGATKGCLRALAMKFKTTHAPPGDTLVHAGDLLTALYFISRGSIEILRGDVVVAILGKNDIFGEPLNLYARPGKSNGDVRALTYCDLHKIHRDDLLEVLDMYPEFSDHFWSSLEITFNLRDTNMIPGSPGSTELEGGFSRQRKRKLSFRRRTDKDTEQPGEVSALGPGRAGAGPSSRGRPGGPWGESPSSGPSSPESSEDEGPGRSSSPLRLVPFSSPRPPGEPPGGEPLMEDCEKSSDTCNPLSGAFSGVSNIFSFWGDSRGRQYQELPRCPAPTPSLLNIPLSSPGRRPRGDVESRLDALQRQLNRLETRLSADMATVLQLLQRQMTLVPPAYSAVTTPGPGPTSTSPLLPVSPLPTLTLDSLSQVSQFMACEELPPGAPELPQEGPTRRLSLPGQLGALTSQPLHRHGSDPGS
Sequence of Cytochrome P450 2D6 (P10635 whole entry): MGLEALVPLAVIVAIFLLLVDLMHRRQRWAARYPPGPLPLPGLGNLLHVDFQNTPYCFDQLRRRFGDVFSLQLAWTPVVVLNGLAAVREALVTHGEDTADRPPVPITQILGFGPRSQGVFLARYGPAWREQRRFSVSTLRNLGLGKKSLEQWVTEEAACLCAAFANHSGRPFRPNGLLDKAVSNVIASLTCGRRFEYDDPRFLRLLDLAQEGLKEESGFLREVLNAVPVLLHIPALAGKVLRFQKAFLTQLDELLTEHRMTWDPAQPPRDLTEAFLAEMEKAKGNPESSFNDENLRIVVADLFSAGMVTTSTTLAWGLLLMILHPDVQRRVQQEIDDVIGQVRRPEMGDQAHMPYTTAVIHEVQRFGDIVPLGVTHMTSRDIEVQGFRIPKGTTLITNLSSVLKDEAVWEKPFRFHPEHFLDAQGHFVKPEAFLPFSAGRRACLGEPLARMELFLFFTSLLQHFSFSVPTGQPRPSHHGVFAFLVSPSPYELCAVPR
Sequence of Cytochrome P450 2C9 (P11712 whole entry): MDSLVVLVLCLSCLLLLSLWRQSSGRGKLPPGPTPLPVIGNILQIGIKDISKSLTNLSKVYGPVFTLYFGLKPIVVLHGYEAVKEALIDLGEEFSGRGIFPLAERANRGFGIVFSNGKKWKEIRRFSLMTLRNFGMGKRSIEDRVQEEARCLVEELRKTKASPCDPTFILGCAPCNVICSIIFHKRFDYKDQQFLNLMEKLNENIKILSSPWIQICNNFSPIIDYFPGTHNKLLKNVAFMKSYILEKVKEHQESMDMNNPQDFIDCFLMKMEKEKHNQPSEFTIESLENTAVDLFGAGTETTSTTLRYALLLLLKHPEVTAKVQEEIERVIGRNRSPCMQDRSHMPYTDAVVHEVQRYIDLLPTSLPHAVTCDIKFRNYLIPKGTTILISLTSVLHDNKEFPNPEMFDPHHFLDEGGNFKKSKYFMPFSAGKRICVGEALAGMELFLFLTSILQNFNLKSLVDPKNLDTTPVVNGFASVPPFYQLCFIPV
Sequence of Cytochrome P450 2C19 (P33261 whole entry): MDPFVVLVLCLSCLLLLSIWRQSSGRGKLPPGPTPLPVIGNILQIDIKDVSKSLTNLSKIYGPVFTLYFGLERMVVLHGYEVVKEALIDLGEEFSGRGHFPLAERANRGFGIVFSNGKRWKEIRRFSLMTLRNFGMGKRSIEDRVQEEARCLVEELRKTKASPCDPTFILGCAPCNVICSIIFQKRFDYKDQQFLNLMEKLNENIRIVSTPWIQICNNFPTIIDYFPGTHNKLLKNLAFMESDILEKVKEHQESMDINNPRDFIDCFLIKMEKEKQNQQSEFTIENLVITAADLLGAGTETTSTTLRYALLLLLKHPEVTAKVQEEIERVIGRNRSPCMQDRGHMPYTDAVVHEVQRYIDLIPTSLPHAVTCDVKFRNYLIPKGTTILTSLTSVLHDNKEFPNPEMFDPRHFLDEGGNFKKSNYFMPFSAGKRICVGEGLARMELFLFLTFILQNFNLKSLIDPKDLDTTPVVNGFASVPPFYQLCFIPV

For the compound `Cc1cc(CN2CCC2)cc(F)c1-c1cc2c(-c3cnn(C)c3)n[nH]c2cn1`, the exposure (AUC) (commonly the area under the concentration-time curve, a measure of exposure) at 24 h in series [1] came out at 9.77 µM·h; in series [11], 1.1 µM·h. The IC50 (as a rule, the concentration at which inhibition is half-maximal) in series [2] is 0.146 µM; in series [4], above 15 µM; in [5], above 15 µM; in series [8] it was above 15 µM; in series [10] it was above 15 µM; in series [13], 0.302 µM. The IC50 in [15], in [16] and in [17] was above 15 µM in each case. In addition, the half-life (in general, the time needed for the level to fall by half in the phase considered) in series [3] is 6 h. In addition, the bioavailability (usually the share of a dose that reaches the circulation, judged against a reference dose that is usually intravenous) in series [6] is 96%. Also, the clearance – broadly, a measure of how efficiently the substance is removed, as volume per time – in series [7] was 15.8 mL/min/kg; in series [20], 102 mL/min/kg. Also, the CLint scaled at 1 µM in series [9] was 8.33 mL/min/kg. Besides, the inhibition – broadly, the drop in the measured response relative to a control, in per cent – at 5 µM in series [12] came out at 5%. The Vdss (as a rule, a proportionality between amount in the body and measured concentration, not a real space) in [14] was determined as 4 L/kg. The Papp A→B at 2 h, 50 µM in series [18] was 3.1 ×10⁻⁶ cm/s. In series [19], the Ki (as a rule, a measure of affinity in units of concentration, obtained from inhibition or displacement) was found to be 0.0041 µM. Besides, the fraction unbound (usually free concentration divided by total concentration) in [21] came to 0.43.
